Results reported in patent US20230416262A1, “TRPML MODULATORS” (Casma Therapeutics, Inc., priority 2020, published 2023).

The compounds below were run on TFEB (assay: TFEB nuclear translocation assay). Conditions: Homo sapiens; HeLa wt or HeLa TRPML1 KO cells, treated for 2 hrs; ratio of nuclear to ring-region TFEB intensity.
Assay type: cell-based
Procedure: For the TFEB nuclear translocation assay, HeLa wt or HeLa TRPML1 KO cells were plated at 2700 cells/well into black-walled, 384-well Cell carrier Ultra tissue culture treated plates in complete media and incubated overnight. The next day, cells are treated for 2 hrs with compounds and incubated at 37° C. Cells were then fixed for 30 minutes at room temperature in 4% final PFA and washed five times with 90 μL PBS. PBS is aspirated from the wells and the cells are blocked with 7.5 μL blocking buffer (1.1 PBS/Odyssey block buffer containing 0.1% triton x-100 and 1% goat serum). After 30-60 minutes of block, 7.5 μL of primary anti-TFEB (rabbit) antibody is added for a final dilution of 1:200 antibody in 15 μL blocking buffer. Plates are incubated overnight at 4° C. The following day, plates are washed again into PBS, 90 μL with 5 washes, all PBS is aspirated from the wells and the cells are incubated for 1 hr in 1:1000 goat-anti rabbit Alexa 488 secondary antibody, also containing 10 μg/mL Hoechst 33342. After the 1 hr RT incubation, plates are washed a final time into PBS, sealed with foil and imaged with an automated epifluorescence microscopy (PerkinElmer Operetta CLS). Four different fields were imaged per well using ×20 magnification for DAPI and FITC filter sets. Images were quantified using PerkinElmer Harmony software, briefly: apply flatfield correction (basic/advanced) for input images. Use the Find Nuclei building block with channel set at Hoechst to find the nuclei. Use the Find cytoplasm building block with channel set to Alexa 488 to find the cytoplasm. Use select cell region with Channel set at Alexa 488 and region of interest as Nuclei and define outer border at 0 μm and inner at 45 μm to cover complete nuclei. Use select cell region with Channel set at Alexa 488 and region of interest as ring region and define outer border at −5 μm and inner at 0 μm to define a ring around the nucleus. Use the find calculate intensity parameter to calculate intensity of the nuclear region and the ring region. Define results as Number of nuclei and ratio of A/B where A is Intensity of Nuclei and B is intensity of the ring region.

| SMILES | EC50 [µM] |
| --- | --- |
| O=S(=O)(Cc1ccc2c(c1)COCC2)N1CC2(CCCC2)c2ccccc21 [Compound I-34, 1′-[(3,4-dihydro-1H-2-benzopyran-7-yl)methanesulfonyl]-1′,2′-dihydrospiro[cyclopentane-1,3′-indole]] | 2.01 to 8 |
| O=S(=O)(c1ccc2c(c1)COC2)N1CC2(CCCC2)c2ccccc21 [Compound I-36, 1′-(1,3-dihydro-2-benzofuran-5-sulfonyl)-1′,2′-dihydrospiro[cyclopentane-1,3′-indole]] | ≥ 10 |
| O=S(=O)(c1ccc2c(c1)COCC2)N1CC2(CCCC2)c2ccccc21 [Compound I-37] | 2.01 to 8 |
| O=S(=O)(CC(F)c1ccccc1)N1CC2(CCCC2)c2ccccc21 (stereo not shown) [Compound I-38, 1′-(2-fluoro-2-phenylethanesulfonyl)-1′,2′-dihydrospiro[cyclopentane-1,3′-indole]] | ≥ 10 |
| O=S(=O)(c1cnc(-c2ccccc2)o1)N1CC2(CCCC2)c2ccccc21 [Compound I-39, 1′-[(2-phenyl-1,3-oxazol-5-yl)sulfonyl]-1′,2′-dihydrospiro[cyclopentane-1,3′-indole]] | ≥ 10 |
| O=S(=O)(C1=Cc2ccccc2OCC1)N1CC2(CCCC2)c2ccccc21 [Compound I-40, 1′-(2,3-dihydro-1-benzoxepine-4-sulfonyl)-1′,2′-dihydrospiro[cyclopentane-1,3′-indole]] | 2.01 to 8 |
| O=S(=O)(C1=Cc2ccccc2OC1)N1CC2(CCCC2)c2ccccc21 [Compound I-41, 1′-(2H-chromene-3-sulfonyl)-1′,2′-dihydrospiro[cyclopentane-1,3′-indole]] | 8.01 to 9.99 |
| O=S(=O)(C1=Cc2ccccc2CC1)N1CC2(CCCC2)c2ccccc21 [Compound I-42, 1′-(3,4-dihydronaphthalene-2-sulfonyl)-1′,2′-dihydrospiro[cyclopentane-1,3′-indole]] | 2.01 to 8 |
| O=S(=O)(c1ccn(C2CC2(F)F)n1)N1CC2(CCCC2)c2ccccc21 (stereo not shown) [Compound I-43, 1′-{[1-(2,2-difluorocyclopropyl)-1H-pyrazol-3-yl]sulfonyl}-1′,2′-dihydrospiro[cyclopentane-1,3′-indole]] | ≥ 10 |
| Cc1ccc(CS(=O)(=O)N2CC3(CCCC3)c3ccccc32)c(F)c1 [Compound I-44, 1′-[(2-fluoro-4-methylphenyl)methanesulfonyl]-1′,2′-dihydrospiro[cyclopentane-1,3′-indole]] | 2.01 to 8 |
| O=S(=O)(Cc1ccc(C(F)F)cc1)N1CC2(CCCC2)c2ccccc21 [Compound I-45, 1′-{[4-(difluoromethyl)phenyl]methanesulfonyl}-1′,2′-dihydrospiro[cyclopentane-1,3′-indole]] | 2.01 to 8 |
| O=S(=O)(Cc1cccc(Cl)c1)N1CC2(CCCC2)c2ccccc21 [Compound I-46, 1′-[(3-chlorophenyl)methanesulfonyl]-1′,2′-dihydrospiro[cyclopentane-1,3′-indole]] | 2.01 to 8 |
| Cc1ccc(F)c(CS(=O)(=O)N2CC3(CCCC3)c3ccccc32)c1 [Compound I-47, 1′-[(2-fluoro-5-methylphenyl)methanesulfonyl]-1′,2′-dihydrospiro[cyclopentane-1,3′-indole]] | 2.01 to 8 |
| O=S(=O)(c1cccc(C2CC2(F)F)c1)N1CC2(CCCC2)c2ccccc21 (stereo not shown) [Compound I-49, 1′-[3-(2,2-difluorocyclopropyl)benzenesulfonyl]-1′,2′-dihydrospiro[cyclopentane-1,3′-indole]] | 2.01 to 8 |
| CC(C)(O)c1ccc(S(=O)(=O)N2CC3(CCCC3)c3ccccc32)cc1 [Compound I-50, 2-[4-({1′,2′-dihydrospiro[cyclopentane-1,3′-indol]-1′-yl}sulfonyl)phenyl]propan-2-ol] | ≥ 10 |
| CC1(C)Cc2cc(S(=O)(=O)N3CC4(CCCC4)c4ccccc43)ccc2C1=O [Compound I-51, 5-({1′,2′-dihydrospiro[cyclopentane-1,3′-indol]-1′-yl}sulfonyl)-2,2-dimethyl-2,3-dihydro-1H-inden-1-one] | 8.01 to 9.99 |
| CN(c1ccc(S(=O)(=O)N2CC3(CCCC3)c3ccccc32)cc1)S(C)(=O)=O [Compound I-52, N-[4-({1′,2′-dihydrospiro[cyclopentane-1,3′-indol]-1′-yl}sulfonyl)phenyl]-N-methylmethanesulfonamide] | ≥ 10 |

| SMILES | EC50 [µM] |
| --- | --- |
| COC(=O)C(C)(C)c1ccc(S(=O)(=O)N2CC3(CCCC3)c3ccccc32)cc1 [Compound I-53, methyl 2-[4-({1′,2′-dihydrospiro[cyclopentane-1,3′-indol]-1′-yl}sulfonyl)phenyl]-2-methylpropanoate] | ≥ 10 |
| CC(C)(CO)c1ccc(S(=O)(=O)N2CC3(CCCC3)c3ccccc32)cc1 [Compound I-54, 2-[4-({1′,2′-dihydrospiro[cyclopentane-1,3′-indol]-1′-yl}sulfonyl)phenyl]-2-methylpropan-1-ol] | ≥ 10 |
| CN1Cc2cc(S(=O)(=O)N3CC4(CCCC4)c4ccccc43)ccc2C1=O [Compound I-55, 5-({1′,2′-dihydrospiro[cyclopentane-1,3′-indol]-1′-yl}sulfonyl)-2-methyl-2,3-dihydro-1H-isoindol-1-one] | ≥ 10 |
| COC(C)(C)c1ccc(S(=O)(=O)N2CC3(CCCC3)c3ccccc32)cc1 [Compound I-56, 1′-[4-(2-methoxypropan-2-yl)benzenesulfonyl]-1′,2′-dihydrospiro[cyclopentane-1,3′-indole]] | ≥ 10 |
| CC1(C)OCc2ccc(S(=O)(=O)N3CC4(CCCC4)c4ccccc43)cc21 [Compound I-58, 1′-[(3,3-dimethyl-1,3-dihydro-2-benzofuran-5-yl)sulfonyl]-1′,2′-dihydrospiro[cyclopentane-1,3′-indole]] | 2.01 to 8 |
| O=S(=O)(c1ccc2c(c1)CCOC2)N1CC2(CCCC2)c2ccccc21 [Compound I-59, 1′-(3,4-dihydro-1H-2-benzopyran-6-sulfonyl)-1′,2′-dihydrospiro[cyclopentane-1,3′-indole]] | ≥ 10 |
| COC(C)(C)c1cccc(S(=O)(=O)N2CC3(CCCC3)c3ccccc32)c1 [Compound I-60, 1′-[3-(2-methoxypropan-2-yl)benzenesulfonyl]-1′,2′-dihydrospiro[cyclopentane-1,3′-indole]] | 8.01 to 9.99 |
| CC(C)(O)c1cccc(S(=O)(=O)N2CC3(CCCC3)c3ccccc32)c1 [Compound I-61, 2-[3-({1′,2′-dihydrospiro[cyclopentane-1,3′-indol]-1′-yl}sulfonyl)phenyl]propan-2-ol] | ≥ 10 |
| COC(=O)c1ccc(CS(=O)(=O)N2CC3(CCCC3)c3ccccc32)cc1 [Compound I-62, methyl 4-[({1′,2′-dihydrospiro[cyclopentane-1,3′-indol]-1′-yl}sulfonyl)methyl]benzoate] | ≥ 10 |
| CS(=O)(=O)Nc1ccc(S(=O)(=O)N2CC3(CCCC3)c3ccccc32)cc1 [Compound I-63, N-[4-({1′,2′-dihydrospiro[cyclopentane-1,3′-indol]-1′-yl}sulfonyl)phenyl]methanesulfonamide] | ≥ 10 |
| O=S(=O)(c1ccc2c(c1)OC1(CCC1)O2)N1CC2(CCCC2)c2ccccc21 [Compound I-64, 1′-({spiro[1,3-benzodioxole-2,1′-cyclobutan]-6-yl}sulfonyl)-1′,2′-dihydrospiro[cyclopentane-1,3′-indole]] | 2.01 to 8 |
| CS(=O)(=O)c1ccc(S(=O)(=O)N2CC3(CCN(c4ccc(Cl)cc4F)CC3)c3ccccc32)cc1 [Compound I-65, 1′-(4-chloro-2-fluorophenyl)-1-((4-(methylsulfonyl)phenyl)sulfonyl)spiro[indoline-3,4′-piperidine]] | ≤ 2 |
| CC1(C)OCc2cc(S(=O)(=O)N3CC4(CCCC4)c4ccccc43)ccc21 [Compound I-66, 1′-((1,1-dimethyl-1,3-dihydroisobenzofuran-5-yl)sulfonyl)spiro[cyclopentane-1,3′-indoline]] | 2.01 to 8 |
| CN(C)S(=O)(=O)c1ccc(S(=O)(=O)N2CC3(CCOCC3)c3ccccc32)cc1 [Compound I-69, 4-({1,2-dihydrospiro[indole-3,4′-oxan]-1-yl}sulfonyl)-N,N-dimethylbenzene-1-sulfonamide] | ≤ 2 |
| CN(C)S(=O)(=O)c1ccc(S(=O)(=O)N2CC3(CCCC3)c3cnccc32)cc1 [Compound I-70, 4-({1′,2′-dihydrospiro[cyclopentane-1,3′-pyrrolo[3,2-c]pyridin]-1′-yl}sulfonyl)-N,N-dimethylbenzene-1-sulfonamide] | ≥ 10 |
| CN(C)S(=O)(=O)c1ccc(S(=O)(=O)N2CC3(CCCC3)c3cccnc32)cc1 [Compound I-71, 4-({1′,2′-dihydrospiro[cyclopentane-1,3′-pyrrolo[2,3-b]pyridin]-1′-yl}sulfonyl)-N,N-dimethylbenzene-1-sulfonamide] | ≥ 10 |
| CN(C)S(=O)(=O)c1ccc(S(=O)(=O)N2CC3(CCC(O)CC3)c3ccccc32)cc1 (stereo not shown) [Compound I-72, 4-({4-hydroxy-1′,2′-dihydrospiro[cyclohexane-1,3′-indol]-1′-yl}sulfonyl)-N,N-dimethylbenzene-1-sulfonamide] | 2.01 to 8 |
